Source: US8633183B2 (priority 2010, dated 2014)
pIC50: −log10 of the molar value.

target: PI3Kalpha (Homo sapiens (Human), UniProt P42336); conditions: read-out: IC50 PI3K
Sequence (P42336 whole entry, looked up): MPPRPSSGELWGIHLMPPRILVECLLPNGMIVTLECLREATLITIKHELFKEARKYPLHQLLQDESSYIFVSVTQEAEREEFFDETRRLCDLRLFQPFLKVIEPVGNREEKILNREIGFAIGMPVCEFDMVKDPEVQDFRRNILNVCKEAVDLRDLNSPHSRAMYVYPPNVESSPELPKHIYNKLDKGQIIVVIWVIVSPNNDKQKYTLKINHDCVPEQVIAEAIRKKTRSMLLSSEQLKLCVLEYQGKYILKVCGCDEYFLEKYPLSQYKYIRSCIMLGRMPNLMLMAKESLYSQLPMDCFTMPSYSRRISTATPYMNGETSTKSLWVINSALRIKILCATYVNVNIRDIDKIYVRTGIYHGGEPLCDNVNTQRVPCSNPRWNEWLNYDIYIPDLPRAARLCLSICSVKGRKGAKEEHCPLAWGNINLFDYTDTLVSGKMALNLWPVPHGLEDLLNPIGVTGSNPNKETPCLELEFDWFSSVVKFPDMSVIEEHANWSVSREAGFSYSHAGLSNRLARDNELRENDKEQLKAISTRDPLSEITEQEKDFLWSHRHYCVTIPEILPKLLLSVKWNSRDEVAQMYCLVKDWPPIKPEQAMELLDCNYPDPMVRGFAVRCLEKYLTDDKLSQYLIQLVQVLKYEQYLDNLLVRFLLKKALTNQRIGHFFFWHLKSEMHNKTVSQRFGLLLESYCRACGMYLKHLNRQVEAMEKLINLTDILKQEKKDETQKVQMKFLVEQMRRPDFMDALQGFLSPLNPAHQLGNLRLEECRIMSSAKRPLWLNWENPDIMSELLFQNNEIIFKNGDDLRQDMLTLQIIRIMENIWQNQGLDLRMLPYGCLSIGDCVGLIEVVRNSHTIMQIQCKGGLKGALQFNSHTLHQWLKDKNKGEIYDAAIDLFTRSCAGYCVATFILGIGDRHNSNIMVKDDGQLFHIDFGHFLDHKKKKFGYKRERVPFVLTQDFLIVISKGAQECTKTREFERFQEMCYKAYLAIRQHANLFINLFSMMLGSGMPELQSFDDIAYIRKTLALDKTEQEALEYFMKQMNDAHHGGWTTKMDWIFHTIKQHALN
Procedure: Plot the concentration of each compound versus the emission ratio. […] Determination of IC50 values can be obtained by curve fitting (sigmoidal dose response, variable slope) using Prism software from GraphPad).
Method Type: Filter-Binding-Assay
Compounds are serially diluted in assay buffer+6% DMSO and 10 μl of each dilution is added per well of a 96-well plate (compounds are tested in duplicates) and mixed with 30 μl of the lipid vesicles containing PDGFR-Peptide (0.5 μM final) and PI3K alpha (25 ng/well final). The mixture is then incubated for 20 minutes at room temperature. Subsequently, 20 μl of assay buffer containing 3 μM cold ATP and 0.5 μCi/20 μl 33P-ATP are added. The plates are then incubated at room temperature for 120 minutes (shaking with 300 rpm). The reaction mix is transferred onto filter plates using “filtermate harvester” from Packard: filter plates are rinsed with PBS, then the reaction mix is filtered onto the filter plate, washed 5 times with PBS and are allowed to dry for 30-60 minutes at 50° C.
As positive control serve wells containing vehicle controls (1% DMSO in assay buffer), showing non-inhibited kinase activity (high values). Wells containing assay buffer instead of enzyme can serve as control for background activity (low values).
Calculate IC50 values using the Smiley program (based on GrapPad Prism)

In order of falling pIC50:
1. CCc1ncnc(-c2ccc(C(=O)N3CCNC(=O)C3)c(OC)c2)c1C#Cc1ccc(N)nc1 [Example D-59]  7.72
2. CCc1ncnc(-c2ccc(C(=O)N3CCN(/C(=N\C#N)NC)CC3)c(F)c2)c1C#Cc1ccc(N)nc1 [Example D-117]  7.57
3. CCc1ncnc(-c2ccc(C(=O)N3CCN(S(=O)(=O)CC)CC3)c(OC)c2)c1C#Cc1ccc(N)nc1 [Example D-55]  7.44
4. CCc1ncnc(-c2ccc(C(=O)N(C)O)c(F)c2)c1C#Cc1ccc(N)nc1 [Example D-68]  7.38
5. CCc1ncnc(-c2ccc(C(=O)N3CCN(S(=O)(=O)CC)CC3)c(F)c2)c1C#Cc1ccc(N)nc1 [Example D-89]  7.28
6. CCc1ncnc(-c2ccc(C(=O)N(C)CCN3CCCC3=O)c(F)c2)c1C#Cc1ccc(N)nc1 [Example D-119]  7.26
7. CCc1ncnc(-c2ccc(C(=O)N3CCNCC3)c(F)c2)c1C#Cc1ccc(N)nc1 [Example D-113]  7.24
8. CCc1ncnc(-c2ccc(C(=O)N3CCN(C(C)=O)CC3)c(F)c2)c1C#Cc1ccc(N)nc1 [Example D-90]  7.21
9. CCc1ncnc(-c2ccc(C(=O)N3CCCC(O)C3)c(F)c2)c1C#Cc1ccc(N)nc1 [Example D-110]  7.19
10. CCc1ncnc(-c2ccc(C(=O)N3CCN(C(C)=O)CC3)c(OC)c2)c1C#Cc1ccc(N)nc1 [Example D-56]  7.14
11. CCc1ncnc(-c2ccc(C(=O)N3CCN(CC(F)(F)F)CC3)c(OC)c2)c1C#Cc1ccc(N)nc1 [Example D-54]  7.09
12. CCc1ncnc(-c2ccc(C(=O)N(C)CC(C)(C)O)c(F)c2)c1C#Cc1ccc(N)nc1 [Example D-81]  7.08
13. CCc1ncnc(-c2ccc(C(=O)N3CCN(CC(F)F)CC3)c(F)c2)c1C#Cc1ccc(N)nc1 [Example D-61]  7.07
14. CCc1ncnc(-c2ccc(C(=O)N3CCC(O)CC3)c(F)c2)c1C#Cc1ccc(N)nc1 [Example D-71]  7.07
15. CCc1ncnc(-c2ccc(C(=O)N3CCN(C4CCS(=O)(=O)C4)CC3)c(F)c2)c1C#Cc1ccc(N)nc1 [Example D-86]  7.02
16. CCc1ncnc(-c2ccc(C(=O)N3CCN(CCO)CC3)c(F)c2)c1C#Cc1ccc(N)nc1 [Example D-91]  6.96
17. CCc1ncnc(-c2ccc(C(=O)N3CCN(CC(=O)N(C)C)CC3)c(F)c2)c1C#Cc1ccc(N)nc1 [Example D-85]  6.94
18. CCc1ncnc(-c2ccc(C(=O)N3CCN(C)C(=O)C3)c(F)c2)c1C#Cc1ccc(N)nc1 [Example D-133]  6.94
19. CCc1ncnc(-c2ccc(C(=O)N3CCN(CC4CCCO4)CC3)c(F)c2)c1C#Cc1ccc(N)nc1 [Example D-88]  6.93
20. CCc1ncnc(-c2ccc(C(=O)N3CCC[C@@H]3CO)c(F)c2)c1C#Cc1ccc(N)nc1 [Example D-131]  6.92
21. CCc1ncnc(-c2ccc(C(=O)N3CCN(c4ccccn4)CC3)c(F)c2)c1C#Cc1ccc(N)nc1 [Example D-92]  6.91
22. CCc1ncnc(-c2ccc(C(=O)N3CCN(C4CCOCC4)CC3)c(F)c2)c1C#Cc1ccc(N)nc1 [Example D-84]  6.90
23. CCc1ncnc(-c2ccc(C(=O)N3CCC(CCO)CC3)c(F)c2)c1C#Cc1ccc(N)nc1 [Example D-104]  6.90
24. CCc1ncnc(-c2ccc(C(=O)N3CCN(C4CC4)CC3)c(F)c2)c1C#Cc1ccc(N)nc1 [Example D-121]  6.90
25. CCOC(=O)N1CCN(C(=O)c2ccc(-c3ncnc(CC)c3C#Cc3ccc(N)nc3)cc2F)CC1 [Example D-116]  6.89
26. CCc1ncnc(-c2ccc(C(=O)N3CCN(CC(F)(F)F)CC3)c(F)c2)c1C#Cc1ccc(N)nc1 [Example D-69]  6.88
27. CCc1ncnc(-c2ccc(C(=O)N3CCN(CCOC)CC3)c(OC)c2)c1C#Cc1ccc(N)nc1 [Example D-52]  6.87
28. CCc1ncnc(-c2ccc(C(=O)N3CCC[C@H]3CO)c(F)c2)c1C#Cc1ccc(N)nc1 [Example D-135]  6.87
29. CCc1ncnc(-c2ccc(C(=O)N3CCC(O)(c4ccccc4)CC3)c(F)c2)c1C#Cc1ccc(N)nc1 [Example D-126]  6.85
30. CCc1ncnc(-c2ccc(C(=O)N3CCN(C(C)=O)CC3)c(F)c2)c1C#Cc1ccc(N)nc1C [Example D-82]  6.84
31. CCc1ncnc(-c2ccc(C(=O)N3CCN(CCOC)CC3)c(F)c2)c1C#Cc1ccc(N)nc1 [Example D-95]  6.84
32. CCc1ncnc(-c2ccc(C(=O)N3CCN(CCO)CC3)c(OC)c2)c1C#Cc1ccc(N)nc1 [Example D-57]  6.82
33. CCc1ncnc(-c2ccc(C(=O)N3CCN(C4CCCC4)CC3)c(F)c2)c1C#Cc1ccc(N)nc1 [Example D-96]  6.82
34. CCc1ncnc(-c2ccc(C(=O)N3CCN(C)C(C)C3)c(F)c2)c1C#Cc1ccc(N)nc1 [Example D-128]  6.80
35. CCc1ncnc(-c2ccc(C(=O)N3CCC(C(C)(C)O)CC3)c(F)c2)c1C#Cc1ccc(N)nc1 [Example D-79]  6.77
36. CCc1ncnc(-c2ccc(C(=O)N3CC(C)NC(C)C3)c(F)c2)c1C#Cc1ccc(N)nc1 [Example D-132]  6.74
37. CCc1ncnc(-c2ccc(C(=O)N3CCN(CC4CCCN(C)C4)CC3)c(F)c2)c1C#Cc1ccc(N)nc1 [Example D-114]  6.73
38. CCc1ncnc(-c2ccc(C(=O)N3CCN(C4CCN(C)CC4)CC3)c(F)c2)c1C#Cc1ccc(N)nc1 [Example D-64]  6.70
39. CCc1ncnc(-c2ccc(C(=O)N3CCN(c4ccccc4)CC3)c(F)c2)c1C#Cc1ccc(N)nc1 [Example D-98]  6.70
40. CCc1ncnc(-c2ccc(C(=O)N3CCN(C(C)C)CC3)c(F)c2)c1C#Cc1ccc(N)nc1 [Example D-122]  6.70
41. CCc1ncnc(-c2ccc(C(=O)N3CCC(N4CCN(C)CC4)CC3)c(F)c2)c1C#Cc1ccc(N)nc1 [Example D-62]  6.69
42. CCc1ncnc(-c2ccc(C(=O)N3CCN(C(C)C)CC3)c(OC)c2)c1C#Cc1ccc(N)nc1 [Example D-50]  6.68
43. CCc1ncnc(-c2ccc(C(=O)N3CCN(CC)CC3)c(OC)c2)c1C#Cc1ccc(N)nc1 [Example D-53]  6.67
44. CCCCN1CCN(C(=O)c2ccc(-c3ncnc(CC)c3C#Cc3ccc(N)nc3)cc2F)CC1 [Example D-83]  6.66
45. CCc1ncnc(-c2ccc(C(=O)N3CCC(O)(C(C)C)CC3)c(F)c2)c1C#Cc1ccc(N)nc1 [Example D-124]  6.64
46. CCc1ncnc(-c2ccc(C(=O)N3CCN(CC4CC4)CC3)c(Cl)c2)c1C#Cc1ccc(N)nc1 [Example D-136]  6.64
47. CCc1ncnc(-c2ccc(C(=O)N3CCC(N4CCOCC4)CC3)c(F)c2)c1C#Cc1ccc(N)nc1 [Example D-63]  6.63
48. CCc1ncnc(-c2ccc(C(=O)N3CCN4CCCCC4C3)c(F)c2)c1C#Cc1ccc(N)nc1 [Example D-87]  6.63
49. CCc1ncnc(-c2ccc(C(=O)N3CCC(N4CCN(C5CCN(C)CC5)CC4)CC3)c(F)c2)c1C#Cc1ccc(N)nc1 [Example D-67]  6.61
50. CCc1ncnc(-c2ccc(C(=O)N3CCN(C(C)(C)C)CC3)c(OC)c2)c1C#Cc1ccc(N)nc1 [Example D-48]  6.60
51. CCc1ncnc(-c2ccc(C(=O)N3CCN(CC4CC4)CC3)c(F)c2)c1C#Cc1ccc(N)nc1 [Example D-106]  6.60
52. CCc1ncnc(-c2ccc(C(=O)N3CCN(c4ccncc4)CC3)c(F)c2)c1C#Cc1ccc(N)nc1 [Example D-93]  6.58
53. CCc1ncnc(-c2ccc(C(=O)N3CCC(O)(CC)CC3)c(F)c2)c1C#Cc1ccc(N)nc1 [Example D-125]  6.57
54. CCc1ncnc(-c2ccc(C(=O)NCC3CCN(C)CC3)c(F)c2)c1C#Cc1ccc(N)nc1 [Example D-77]  6.52
55. CCc1ncnc(-c2ccc(C(=O)N3CCC(N4CCC(C)CC4)C3)c(F)c2)c1C#Cc1ccc(N)nc1 [Example D-108]  6.50
56. CCc1ncnc(-c2ccc(C(=O)N(C)CC3CCCN(C)C3)c(F)c2)c1C#Cc1ccc(N)nc1 [Example D-73]  6.49
57. CCc1ncnc(-c2ccc(C(=O)N3CCC(N4CCCC4)CC3)c(F)c2)c1C#Cc1ccc(N)nc1 [Example D-112]  6.49
58. CCc1ncnc(-c2ccc(C(=O)N3CCC(O)(C(F)(F)F)CC3)c(F)c2)c1C#Cc1ccc(N)nc1 [Example D-123]  6.49
59. CCc1ncnc(-c2ccc(C(=O)NCC3CCN(C)C3)c(F)c2)c1C#Cc1ccc(N)nc1 [Example D-75]  6.47
60. CCc1ncnc(-c2ccc(C(=O)N(C)CC3CCN(C)CC3)c(F)c2)c1C#Cc1ccc(N)nc1 [Example D-76]  6.47
61. CCc1ncnc(-c2ccc(C(=O)N3CCC(N(C)C)CC3)c(F)c2)c1C#Cc1ccc(N)nc1 [Example D-100]  6.46
62. CCc1ncnc(-c2ccc(C(=O)N3CCN(C)C(C)(C)C3)c(F)c2)c1C#Cc1ccc(N)nc1 [Example D-127]  6.46
63. CCc1ncnc(-c2ccc(C(=O)N3CCN(C(CC)CC)CC3)c(F)c2)c1C#Cc1ccc(N)nc1 [Example D-130]  6.42
64. CCc1ncnc(-c2ccc(C(=O)N3CCN(C(C)CC)CC3)c(F)c2)c1C#Cc1ccc(N)nc1 [Example D-129]  6.41
65. CCc1ncnc(-c2ccc(C(=O)N3CCCN(C)CC3)c(F)c2)c1C#Cc1ccc(N)nc1 [Example D-118]  6.39
66. CCc1ncnc(-c2ccc(C(=O)NC3CCN(C)CC3)c(F)c2)c1C#Cc1ccc(N)nc1 [Example D-65]  6.36
67. CCc1ncnc(-c2ccc(C(=O)N3CCN(CCN(C)C)CC3)c(F)c2)c1C#Cc1ccc(N)nc1 [Example D-99]  6.34
68. CCc1ncnc(-c2ccc(C(=O)N3CCC(O)(CN(C)C)CC3)c(F)c2)c1C#Cc1ccc(N)nc1 [Example D-103]  6.33
69. CCc1ncnc(-c2ccc(C(=O)N3CCN(Cc4ccccc4)CC3)c(F)c2)c1C#Cc1ccc(N)nc1 [Example D-97]  6.32
70. CCc1ncnc(-c2ccc(C(=O)N3CCC(N4CCCCC4)CC3)c(F)c2)c1C#Cc1ccc(N)nc1 [Example D-70]  6.31
71. CCc1ncnc(-c2ccc(C(=O)N3CCN(CCN(C)C)CC3)c(OC)c2)c1C#Cc1ccc(N)nc1 [Example D-60]  6.26
72. CCc1ncnc(-c2ccc(C(=O)NCC3CCCN(C)C3)c(F)c2)c1C#Cc1ccc(N)nc1 [Example D-74]  6.20
73. CCc1ncnc(-c2ccc(C(=O)N3CCN(CC4CCCCC4)CC3)c(F)c2)c1C#Cc1ccc(N)nc1 [Example D-94]  5.74
